The values below come from the NIST ThermoML archive (doi:10.1016/j.jct.2013.11.028).

Numbers after ± are expanded uncertainties.

The conditions of series [1]: 298.2 K; 101.33 kPa; Liquid; Vibrating tube method.
Series [2] can be described thus: refractive index (Na D-line) (dimensionless). The conditions noted are these: 298.2 K; 101.33 kPa; Liquid; Standard Abbe refractometry.

Broadly, the mass density is mass per unit of volume. A word on the refractive index: it is a measure of how strongly the sample bends light.

Turning to `CC(C)CCO` [3-methylbutan-1-ol], the mass density in series [1] came to 809.05 ± 0.4 kg/m3. Also, the refractive index in series [2] is reported as 1.4085 ± 0.0008.

Consider `CCCCO` [butan-1-ol], for which the mass density in series [1] was determined as 805.6 ± 0.24 kg/m3. For the same compound, the refractive index in series [2] is on record as 1.3968 ± 0.0008.

In the case of `CCCC(=O)O` [butanoic acid], the mass density in series [1] is 952.68 ± 0.23 kg/m3. Moreover, the refractive index in series [2] was 1.3977 ± 0.0008. On the same counts, the results for `CCCCCO` [pentan-1-ol] are 810.92 ± 0.24 kg/m3 and 1.4073 ± 0.0008. `O` [water]: the refractive index in series [2] was 1.3325 ± 0.0008.
